For ten compounds, T/C results are on record in PubChem BioAssay AID328 (DTP/NCI, 2004).

Where “and” joins values, the source holds several entries; their conditions need not be identical. Equal values may be shown once. Inconclusive results and toxic doses are left out.

For the experiment, the system named is BDF1 mice, P388 leukemia ip, median survival T/C. As to the kind of experiment: NCI In Vivo Anticancer Drug Screen. Data for tumor model P388 Leukemia (intraperitoneal) in B6D2F1 (BDF1) mice. The following applies: endpoint: median survival time, higher = longer survival. Summed up: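 Mice carrying the transplantable tumour receive compound or vehicle. Survival is followed in each arm, and the treated measure is divided by the vehicle measure.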

Setting [1] is: dose: 5.0 mg/kg/injection, schedule: Q01DX009 (ip), vehicle: saline with Tween-80.
The mark [2] stands for this setting: dose: 10.0 mg/kg/injection, schedule: Q01DX009 (ip), vehicle: saline with Tween-80.
[3] abbreviates: dose: 20.0 mg/kg/injection, schedule: Q01DX009 (ip), vehicle: saline with Tween-80.
[4] abbreviates: dose: 50.0 mg/kg/injection, schedule: Q04DX003 (ip), vehicle: saline with Tween-80.

With `COc1cc2c(cc1OC)C(OC)N(C)c1c-2ccc2cc3c(cc12)OCO3` (stereo not drawn), the T/C is 118 % of control (dose: 1.1 mg/kg/injection, schedule: Q01DX009 (ip), vehicle: water); 122 % of control (dose: 1.4 mg/kg/injection, schedule: Q04DX003 (ip), vehicle: saline with Tween-80); 160 % of control (dose: 1.46 mg/kg/injection, schedule: Q01DX009 (ip), vehicle: saline with Tween-80); 151 % of control (dose: 2.2 mg/kg/injection, schedule: Q01DX009 (ip), vehicle: saline with Tween-80); 181 % of control (dose: 2.5 mg/kg/injection, schedule: Q01DX009 (ip), vehicle: water); 169 % of control (dose: 3.3 mg/kg/injection, schedule: Q01DX009 (ip), vehicle: saline with Tween-80). The T/C is 167 % of control (dose: 4.4 mg/kg/injection, schedule: Q01DX009 (ip), vehicle: saline with Tween-80); 176 % of control under setting [1]; 159 % of control and 190 % of control (dose: 5.0 mg/kg/injection, schedule: Q01DX009 (ip), vehicle: water); 150 % of control (dose: 5.0 mg/kg/injection, schedule: Q04DX003 (ip), vehicle: saline with Tween-80); 216 % of control (dose: 6.6 mg/kg/injection, schedule: Q01DX009 (ip), vehicle: saline with Tween-80); 191 % of control and 218 % of control under setting [2]. The T/C (dose: 10.0 mg/kg/injection, schedule: Q01DX009 (ip), vehicle: saline) was 170 % of control; the T/C (dose: 10.0 mg/kg/injection, schedule: Q01DX009 (ip), vehicle: water) is 177 % of control and 200 % of control; the T/C (dose: 10.0 mg/kg/injection, schedule: Q04DX003 (ip), vehicle: other) was 163 % of control; the T/C (dose: 14.6 mg/kg/injection, schedule: Q04DX003 (ip), vehicle: saline with Tween-80) is 168 % of control; the T/C (dose: 15.0 mg/kg/injection, schedule: Q01DX009 (ip), vehicle: saline with Tween-80) was 188 % of control; the T/C (dose: 15.0 mg/kg/injection, schedule: Q04DX003 (ip), vehicle: other) was 200 % of control. Further, the T/C was 220 % of control and 165 % of control under setting [3]; 195 % of control (dose: 20.0 mg/kg/injection, schedule: Q01DX009 (ip), vehicle: saline); 195 % of control and 220 % of control (dose: 20.0 mg/kg/injection, schedule: Q01DX009 (ip), vehicle: water); 165 % of control (dose: 20.0 mg/kg/injection, schedule: Q04DX003 (ip), vehicle: saline); 168 % of control (dose: 22.0 mg/kg/injection, schedule: Q04DX003 (ip), vehicle: saline with Tween-80); 263 % of control (dose: 33.0 mg/kg/injection, schedule: Q04DX003 (ip), vehicle: saline with Tween-80). The T/C is, setting by setting: (dose: 40.0 mg/kg/injection, schedule: Q01DX009 (ip), vehicle: saline with Tween-80) 160 % of control and 175 % of control; (dose: 40.0 mg/kg/injection, schedule: Q01DX009 (ip), vehicle: saline) 195 % of control; (dose: 40.0 mg/kg/injection, schedule: Q01DX009 (ip), vehicle: water) 186 % of control and 200 % of control; (dose: 40.0 mg/kg/injection, schedule: Q04DX003 (ip), vehicle: saline) 170 % of control; (dose: 50.0 mg/kg/injection, schedule: Q01DX009 (ip), vehicle: Klucel (hydroxypropylcellulose) (HPC)) 205 % of control; (dose: 50.0 mg/kg/injection, schedule: Q04DX002 (ip), vehicle: Klucel (hydroxypropylcellulose) (HPC)) 106 % of control. The T/C by setting is: under setting [4], 231 % of control; (dose: 52.0 mg/kg/injection, schedule: Q01DX009 (ip), vehicle: saline with Tween-80) 181 % of control; (dose: 80.0 mg/kg/injection, schedule: Q01DX009 (ip), vehicle: saline) 180 % of control; (dose: 80.0 mg/kg/injection, schedule: Q01DX009 (ip), vehicle: water) 109 % of control; (dose: 80.0 mg/kg/injection, schedule: Q04DX003 (ip), vehicle: saline) 180 % of control; (dose: 100.0 mg/kg/injection, schedule: Q04DX002 (ip), vehicle: Klucel (hydroxypropylcellulose) (HPC)) 172 % of control. In addition, the T/C is 113 % of control (dose: 120.0 mg/kg/injection, schedule: Q01DX009 (ip), vehicle: water); 104 % of control (dose: 180.0 mg/kg/injection, schedule: Q01DX009 (ip), vehicle: saline with Tween-80); 200 % of control (dose: 200.0 mg/kg/injection, schedule: Q01DX009 (ip), vehicle: Klucel (hydroxypropylcellulose) (HPC)); 190 % of control (dose: 400.0 mg/kg/injection, schedule: Q04DX002 (ip), vehicle: Klucel (hydroxypropylcellulose) (HPC)).

Take `C=C1C(=O)OC2CC(C)C3C=CC(=O)C3(C)C(O)C12` (stereo not drawn): the T/C under setting [1] was 113 % of control, the T/C under setting [2] is 112 % of control and the T/C under setting [3] is 115 % of control.

As for `C=CCC(CC)(C(=O)O)C(=O)O`, the T/C reads like this: (dose: 50.0 mg/kg/injection, schedule: Q01DX009 (ip), vehicle: saline) 100 % of control; (dose: 100.0 mg/kg/injection, schedule: Q01DX009 (ip), vehicle: saline) 90 % of control.

With `CCOc1ccn(CC(=O)N2CCOCC2)c(=O)n1`, the T/C is 103 % of control (dose: 100.0 mg/kg/injection, schedule: Q01DX009 (ip), vehicle: water); 105 % of control (dose: 200.0 mg/kg/injection, schedule: Q01DX009 (ip), vehicle: water); 97 % of control (dose: 400.0 mg/kg/injection, schedule: Q01DX009 (ip), vehicle: water).

As to `CC1CCC(C)C1NC1=NCCO1` (stereo not drawn), the T/C is 109 % of control (dose: 6.25 mg/kg/injection, schedule: Q01DX009 (ip), vehicle: saline with Tween-80); 100 % of control (dose: 12.5 mg/kg/injection, schedule: Q01DX009 (ip), vehicle: saline with Tween-80); 104 % of control (dose: 25.0 mg/kg/injection, schedule: Q01DX009 (ip), vehicle: saline with Tween-80).

Consider `Cc1nc2ncn(C)c2nc1C`, for which the T/C is 105 % of control (dose: 25.0 mg/kg/injection, schedule: Q01DX001 (ip), vehicle: saline sonified); 100 % of control (dose: 50.0 mg/kg/injection, schedule: Q01DX001 (ip), vehicle: saline sonified); 105 % of control (dose: 100.0 mg/kg/injection, schedule: Q01DX001 (ip), vehicle: saline sonified).

As to `IP(c1ccccc1)(c1ccccc1)(c1ccccc1)N1C2CCCCC21` (stereo not drawn), the T/C was 104 % of control and 113 % of control (dose: 0.07 mg/kg/injection, schedule: Q01DX009 (ip), vehicle: saline); 150 % of control and 156 % of control (dose: 0.15 mg/kg/injection, schedule: Q01DX009 (ip), vehicle: saline); 109 % of control (dose: 0.23 mg/kg/injection, schedule: Q04DX003 (ip), vehicle: saline); 150 % of control (dose: 0.31 mg/kg/injection, schedule: Q01DX009 (ip), vehicle: saline); 118 % of control (dose: 0.46 mg/kg/injection, schedule: Q04DX003 (ip), vehicle: saline); 166 % of control (dose: 0.6 mg/kg/injection, schedule: Q01DX009 (ip), vehicle: saline). Moreover, the T/C reads like this: (dose: 0.62 mg/kg/injection, schedule: Q04DX003 (ip), vehicle: saline) 113 % of control; (dose: 0.93 mg/kg/injection, schedule: Q04DX003 (ip), vehicle: saline) 118 % of control; (dose: 1.2 mg/kg/injection, schedule: Q01DX009 (ip), vehicle: saline) 156 % of control.

With `O=C1c2ccccc2C(=O)N1CCc1ccccn1`, the T/C under setting [4] was 100 % of control; the T/C (dose: 100.0 mg/kg/injection, schedule: Q01DX009 (ip), vehicle: saline with Tween-80) was 100 % of control; the T/C (dose: 100.0 mg/kg/injection, schedule: Q04DX003 (ip), vehicle: saline with Tween-80) was 95 % of control and 111 % of control; the T/C (dose: 200.0 mg/kg/injection, schedule: Q01DX009 (ip), vehicle: saline with Tween-80) was 95 % of control; the T/C (dose: 200.0 mg/kg/injection, schedule: Q04DX003 (ip), vehicle: saline with Tween-80) was 100 % of control and 111 % of control; the T/C (dose: 400.0 mg/kg/injection, schedule: Q04DX003 (ip), vehicle: saline with Tween-80) was 88 % of control.

As to `CC(C)CCCC(C)C1CCC2C3C(=O)C=C4CC(O)CCC4(C)C3CCC12C` (stereo not drawn), the T/C reads like this: (dose: 100.0 mg/kg/injection, schedule: Q04DX003 (sc), vehicle: steriod suspending solution) 109 % of control; (dose: 200.0 mg/kg/injection, schedule: Q04DX003 (sc), vehicle: steriod suspending solution) 104 % of control; (dose: 400.0 mg/kg/injection, schedule: Q04DX003 (sc), vehicle: steriod suspending solution) 109 % of control.

For the compound `CC1(C)C2CCC(CN)C1C2` (stereo not drawn), the T/C (dose: 100.0 mg/kg/injection, schedule: Q01DX009 (ip), vehicle: other) is 106 % of control.
